Molecules are shown by their SMILES.

Assay [1] has as its target T1, Serine/threonine-protein kinase Nek5 (Homo sapiens) (UniProt Q6P3R8).
T1 sequence (whole entry): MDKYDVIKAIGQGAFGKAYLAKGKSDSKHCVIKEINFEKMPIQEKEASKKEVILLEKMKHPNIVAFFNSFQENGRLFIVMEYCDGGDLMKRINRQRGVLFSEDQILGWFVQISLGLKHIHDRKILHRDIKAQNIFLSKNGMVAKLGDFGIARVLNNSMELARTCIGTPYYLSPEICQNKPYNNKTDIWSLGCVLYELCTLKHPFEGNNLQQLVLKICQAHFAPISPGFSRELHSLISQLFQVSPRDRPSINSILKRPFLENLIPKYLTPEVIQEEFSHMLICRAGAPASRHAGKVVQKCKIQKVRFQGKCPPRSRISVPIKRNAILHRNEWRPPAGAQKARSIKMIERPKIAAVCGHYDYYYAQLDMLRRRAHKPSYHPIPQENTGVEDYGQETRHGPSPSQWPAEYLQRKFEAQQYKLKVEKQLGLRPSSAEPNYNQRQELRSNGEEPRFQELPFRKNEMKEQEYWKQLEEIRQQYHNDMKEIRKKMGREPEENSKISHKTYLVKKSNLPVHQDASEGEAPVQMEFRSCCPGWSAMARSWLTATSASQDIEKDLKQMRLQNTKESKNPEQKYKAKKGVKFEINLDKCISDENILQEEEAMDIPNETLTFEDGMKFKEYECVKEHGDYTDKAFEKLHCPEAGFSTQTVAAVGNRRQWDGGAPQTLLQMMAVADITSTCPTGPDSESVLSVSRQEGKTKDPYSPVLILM
In words: Selectivity interaction (KinomeScan (DiscoverX)) EUB0001079a NEK5. The following applies: at 1 µM.

In assay [2] the target is ALK tyrosine kinase receptor (Homo sapiens, UniProt Q9UM73). In words: Selectivity interaction (Millipore kinase profiler) EUB0000124b ALK. The following applies: at 10 µM.
The target of assay [3] is Phosphatidylinositol 4,5-bisphosphate 3-kinase catalytic subunit gamma isoform (Homo sapiens) (UniProt P48736). Briefly: Selectivity interaction (KinomeScan (DiscoverX)) EUB0000695a PIK3CG. The following applies: at 100 nM.
Assay [4] addresses Proto-oncogene tyrosine-protein kinase ROS (Homo sapiens) (UniProt P08922). In words: Selectivity interaction (KinomeScan (DiscoverX)) EUB0000695a ROS1. The following applies: at 100 nM.
In assay [5] the target is SRSF protein kinase 3 (Homo sapiens) (UniProt Q9UPE1). In words: Selectivity interaction (KinomeScan (DiscoverX)) EUB0000045b SRPK3.
Chain of SRSF protein kinase 3 (Homo sapiens) (Q9UPE1 whole entry): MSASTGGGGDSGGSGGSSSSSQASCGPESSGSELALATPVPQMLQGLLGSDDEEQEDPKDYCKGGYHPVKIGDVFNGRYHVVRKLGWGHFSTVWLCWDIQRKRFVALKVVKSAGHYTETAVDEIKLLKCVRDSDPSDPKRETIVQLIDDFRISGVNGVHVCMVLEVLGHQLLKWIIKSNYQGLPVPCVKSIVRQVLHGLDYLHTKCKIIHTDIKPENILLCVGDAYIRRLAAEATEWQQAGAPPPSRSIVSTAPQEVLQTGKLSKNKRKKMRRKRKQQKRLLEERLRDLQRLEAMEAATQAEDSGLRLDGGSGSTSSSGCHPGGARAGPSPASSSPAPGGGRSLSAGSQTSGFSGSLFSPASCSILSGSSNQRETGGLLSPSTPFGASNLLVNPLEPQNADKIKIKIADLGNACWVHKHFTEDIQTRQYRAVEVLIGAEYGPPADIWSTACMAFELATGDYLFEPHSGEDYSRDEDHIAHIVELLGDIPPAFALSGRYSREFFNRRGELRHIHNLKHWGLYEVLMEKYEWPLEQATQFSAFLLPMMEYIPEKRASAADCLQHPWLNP
Assay [6] has as its target Tyrosine-protein kinase BTK (Homo sapiens, UniProt Q06187). The following applies: at 10 µM.
The target in assay [7] is T2, Activin receptor type-1 (Homo sapiens) (UniProt Q04771).
T2 sequence (whole entry): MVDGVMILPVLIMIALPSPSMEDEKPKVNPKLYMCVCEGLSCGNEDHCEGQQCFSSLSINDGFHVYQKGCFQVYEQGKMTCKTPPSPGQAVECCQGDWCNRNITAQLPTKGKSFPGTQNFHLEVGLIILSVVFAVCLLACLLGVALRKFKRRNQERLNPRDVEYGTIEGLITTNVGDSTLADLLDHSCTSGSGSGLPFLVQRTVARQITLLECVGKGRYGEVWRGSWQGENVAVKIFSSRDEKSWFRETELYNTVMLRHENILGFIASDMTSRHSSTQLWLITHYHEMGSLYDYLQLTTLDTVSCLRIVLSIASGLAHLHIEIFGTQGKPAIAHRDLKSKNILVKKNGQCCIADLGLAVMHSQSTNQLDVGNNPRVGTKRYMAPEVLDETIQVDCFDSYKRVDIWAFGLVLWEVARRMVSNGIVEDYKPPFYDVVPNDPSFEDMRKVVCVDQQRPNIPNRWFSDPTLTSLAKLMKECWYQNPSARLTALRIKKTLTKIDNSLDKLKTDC
Briefly: Selectivity interaction (KinomeScan (DiscoverX)) EUB0000666a ACVR1. The following applies: at 10 µM.

The target of assay [8] is Mitogen-activated protein kinase 1 (Homo sapiens, UniProt P28482). Briefly: Selectivity interaction (SelectScreen profiling (Invitrogen)) EUB0000607a MAPK1. The following applies: at 2 µM.
For assay [9], the target named is Phosphatidylinositol 4-phosphate 5-kinase type-1 alpha (Homo sapiens) (UniProt Q99755). Briefly: Selectivity interaction (KinomeScan (DiscoverX)) EUB0000607a PIP5K1A. The following applies: at 10 µM.
Chain of Phosphatidylinositol 4-phosphate 5-kinase type-1 alpha (Homo sapiens) (Q99755 whole entry): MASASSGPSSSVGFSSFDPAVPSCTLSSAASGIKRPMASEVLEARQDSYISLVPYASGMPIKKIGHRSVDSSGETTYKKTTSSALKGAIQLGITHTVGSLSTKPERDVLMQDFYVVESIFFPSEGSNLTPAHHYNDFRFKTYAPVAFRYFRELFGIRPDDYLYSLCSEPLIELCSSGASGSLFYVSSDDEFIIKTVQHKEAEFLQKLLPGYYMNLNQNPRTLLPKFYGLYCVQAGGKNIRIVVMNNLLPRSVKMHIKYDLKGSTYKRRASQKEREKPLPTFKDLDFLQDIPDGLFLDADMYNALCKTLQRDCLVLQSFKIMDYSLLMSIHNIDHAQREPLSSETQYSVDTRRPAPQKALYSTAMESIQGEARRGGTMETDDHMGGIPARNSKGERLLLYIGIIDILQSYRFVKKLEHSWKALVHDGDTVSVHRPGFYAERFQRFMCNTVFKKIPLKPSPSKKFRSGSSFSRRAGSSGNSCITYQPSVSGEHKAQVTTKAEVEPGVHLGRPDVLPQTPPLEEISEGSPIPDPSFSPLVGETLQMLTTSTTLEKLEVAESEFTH
For assay [10], the target named is Serine/threonine-protein kinase tousled-like 2 (Homo sapiens) (UniProt Q86UE8). In words: Selectivity interaction (KinomeScan (DiscoverX)) EUB0000607a TLK2. The following applies: at 10 µM.
Chain of Serine/threonine-protein kinase tousled-like 2 (Homo sapiens) (Q86UE8 whole entry, looked up): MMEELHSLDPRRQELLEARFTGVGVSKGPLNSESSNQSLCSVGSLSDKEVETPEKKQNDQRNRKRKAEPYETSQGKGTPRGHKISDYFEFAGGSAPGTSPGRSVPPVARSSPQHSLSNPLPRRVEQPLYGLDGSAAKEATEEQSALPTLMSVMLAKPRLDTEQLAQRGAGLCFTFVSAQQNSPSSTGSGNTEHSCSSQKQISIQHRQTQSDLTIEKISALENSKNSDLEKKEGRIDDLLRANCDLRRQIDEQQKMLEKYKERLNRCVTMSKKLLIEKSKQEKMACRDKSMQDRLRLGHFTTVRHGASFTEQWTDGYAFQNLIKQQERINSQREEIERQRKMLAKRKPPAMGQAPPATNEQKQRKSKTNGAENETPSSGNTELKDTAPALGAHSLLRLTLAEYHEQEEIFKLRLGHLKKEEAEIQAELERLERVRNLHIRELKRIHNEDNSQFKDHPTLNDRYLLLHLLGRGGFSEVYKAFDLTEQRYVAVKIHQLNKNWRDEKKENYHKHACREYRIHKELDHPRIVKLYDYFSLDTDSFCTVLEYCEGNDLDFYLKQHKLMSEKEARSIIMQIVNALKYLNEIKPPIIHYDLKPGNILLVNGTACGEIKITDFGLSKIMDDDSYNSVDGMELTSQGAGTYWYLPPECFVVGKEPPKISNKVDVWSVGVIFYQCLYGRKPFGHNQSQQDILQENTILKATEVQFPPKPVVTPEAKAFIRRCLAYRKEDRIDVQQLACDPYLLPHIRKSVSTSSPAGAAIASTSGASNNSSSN
In assay [11] the target is Tyrosine-protein kinase JAK2 (Homo sapiens, UniProt O60674). In words: Selectivity interaction (Kinase panel (Invitrogen)) EUB0000639a JAK2. The following applies: at 200 nM.
Chain of Tyrosine-protein kinase JAK2 (O60674 whole entry): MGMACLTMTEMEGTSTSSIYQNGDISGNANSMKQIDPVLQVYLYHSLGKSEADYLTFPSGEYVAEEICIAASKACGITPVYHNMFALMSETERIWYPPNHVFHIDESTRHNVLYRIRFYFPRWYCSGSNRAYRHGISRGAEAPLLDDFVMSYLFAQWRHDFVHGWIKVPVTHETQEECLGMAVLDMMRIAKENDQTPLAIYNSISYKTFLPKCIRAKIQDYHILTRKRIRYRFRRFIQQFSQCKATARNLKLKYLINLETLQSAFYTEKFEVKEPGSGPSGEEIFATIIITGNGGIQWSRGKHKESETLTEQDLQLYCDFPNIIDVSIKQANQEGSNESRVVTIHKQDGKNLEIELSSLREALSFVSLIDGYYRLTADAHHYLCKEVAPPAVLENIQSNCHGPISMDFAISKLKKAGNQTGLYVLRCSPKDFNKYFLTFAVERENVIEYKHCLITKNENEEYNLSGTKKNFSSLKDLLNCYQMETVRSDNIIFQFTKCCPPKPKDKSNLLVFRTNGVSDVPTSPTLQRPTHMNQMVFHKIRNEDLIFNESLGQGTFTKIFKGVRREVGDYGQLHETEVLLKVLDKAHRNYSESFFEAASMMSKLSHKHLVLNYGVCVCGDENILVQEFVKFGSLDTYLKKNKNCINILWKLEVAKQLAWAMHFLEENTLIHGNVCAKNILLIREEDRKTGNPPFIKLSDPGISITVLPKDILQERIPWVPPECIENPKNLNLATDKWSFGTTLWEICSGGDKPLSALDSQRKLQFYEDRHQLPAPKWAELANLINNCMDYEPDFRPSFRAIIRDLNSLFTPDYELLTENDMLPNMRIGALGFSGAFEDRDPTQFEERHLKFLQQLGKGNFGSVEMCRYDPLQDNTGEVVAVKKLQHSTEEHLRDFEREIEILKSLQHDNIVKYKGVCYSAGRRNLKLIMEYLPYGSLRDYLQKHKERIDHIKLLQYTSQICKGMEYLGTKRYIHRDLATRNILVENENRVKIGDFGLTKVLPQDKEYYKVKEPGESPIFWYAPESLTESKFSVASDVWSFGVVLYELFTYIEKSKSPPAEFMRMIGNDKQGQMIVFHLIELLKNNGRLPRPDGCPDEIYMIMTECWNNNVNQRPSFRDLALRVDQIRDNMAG
The target in assay [12] is T3, Receptor-interacting serine/threonine-protein kinase 1 (Homo sapiens) (UniProt Q13546).
T3 sequence (whole entry): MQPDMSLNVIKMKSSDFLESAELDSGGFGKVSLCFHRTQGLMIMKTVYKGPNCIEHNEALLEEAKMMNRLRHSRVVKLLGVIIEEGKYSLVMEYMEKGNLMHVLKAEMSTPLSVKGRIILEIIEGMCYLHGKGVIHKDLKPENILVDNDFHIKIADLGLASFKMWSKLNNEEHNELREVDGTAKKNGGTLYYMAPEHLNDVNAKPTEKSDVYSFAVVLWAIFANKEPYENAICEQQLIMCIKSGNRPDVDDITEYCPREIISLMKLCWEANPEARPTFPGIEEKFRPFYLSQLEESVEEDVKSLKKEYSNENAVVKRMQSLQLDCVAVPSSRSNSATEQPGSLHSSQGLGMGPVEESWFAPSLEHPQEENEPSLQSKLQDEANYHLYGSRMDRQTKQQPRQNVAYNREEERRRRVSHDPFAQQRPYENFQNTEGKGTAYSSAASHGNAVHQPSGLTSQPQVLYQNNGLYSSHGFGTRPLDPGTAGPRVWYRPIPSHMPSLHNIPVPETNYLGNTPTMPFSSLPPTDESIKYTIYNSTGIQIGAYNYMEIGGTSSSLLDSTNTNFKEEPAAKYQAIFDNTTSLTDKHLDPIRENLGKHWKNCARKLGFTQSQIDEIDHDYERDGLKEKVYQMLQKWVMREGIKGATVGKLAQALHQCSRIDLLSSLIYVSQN
In words: Selectivity interaction (KinomeScan (DiscoverX)) EUB0000595a RIPK1. The following applies: at 10 µM.

The target of assay [13] is Non-receptor tyrosine-protein kinase TYK2 (Homo sapiens, UniProt P29597). In words: Selectivity interaction (KinomeScan (DiscoverX)) EUB0001619a TYK2. The following applies: at 1 µM.
Chain of Non-receptor tyrosine-protein kinase TYK2 (P29597 whole entry): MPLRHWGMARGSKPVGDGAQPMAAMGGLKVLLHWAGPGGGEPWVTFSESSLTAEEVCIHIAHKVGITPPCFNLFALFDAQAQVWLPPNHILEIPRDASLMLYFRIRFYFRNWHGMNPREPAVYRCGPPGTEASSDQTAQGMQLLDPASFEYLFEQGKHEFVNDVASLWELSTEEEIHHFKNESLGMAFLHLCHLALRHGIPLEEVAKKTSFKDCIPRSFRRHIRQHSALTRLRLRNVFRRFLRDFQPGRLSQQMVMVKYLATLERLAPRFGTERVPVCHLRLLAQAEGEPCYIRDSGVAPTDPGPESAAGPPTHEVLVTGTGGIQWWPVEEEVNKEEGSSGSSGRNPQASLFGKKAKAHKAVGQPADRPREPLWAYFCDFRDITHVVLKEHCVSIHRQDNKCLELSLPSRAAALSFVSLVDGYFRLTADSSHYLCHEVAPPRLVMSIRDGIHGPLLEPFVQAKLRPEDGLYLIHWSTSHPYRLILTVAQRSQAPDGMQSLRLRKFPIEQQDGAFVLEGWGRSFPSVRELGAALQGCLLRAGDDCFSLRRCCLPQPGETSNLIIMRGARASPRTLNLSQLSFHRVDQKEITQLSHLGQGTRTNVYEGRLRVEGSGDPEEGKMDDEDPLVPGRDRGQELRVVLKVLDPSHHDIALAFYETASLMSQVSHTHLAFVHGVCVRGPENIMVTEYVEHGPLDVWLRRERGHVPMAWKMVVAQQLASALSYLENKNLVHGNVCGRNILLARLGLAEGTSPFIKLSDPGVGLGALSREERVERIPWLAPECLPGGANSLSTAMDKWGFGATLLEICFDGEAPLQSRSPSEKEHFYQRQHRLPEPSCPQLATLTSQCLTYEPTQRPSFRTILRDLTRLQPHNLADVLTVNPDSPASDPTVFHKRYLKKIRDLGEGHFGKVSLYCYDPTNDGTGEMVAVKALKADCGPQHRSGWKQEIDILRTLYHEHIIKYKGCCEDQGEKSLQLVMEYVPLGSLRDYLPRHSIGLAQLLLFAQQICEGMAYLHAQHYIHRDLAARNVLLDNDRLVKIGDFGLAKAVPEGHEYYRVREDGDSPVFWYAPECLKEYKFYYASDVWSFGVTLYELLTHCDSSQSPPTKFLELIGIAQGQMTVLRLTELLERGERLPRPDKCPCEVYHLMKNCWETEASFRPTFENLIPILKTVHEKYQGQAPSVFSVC
Assay [14] has as its target Mitogen-activated protein kinase kinase kinase kinase 5 (Homo sapiens) (UniProt Q9Y4K4). Briefly: Selectivity interaction (Kinase panel (KiNativ target engagement assay in Jurkat cells)) EUB0001635a MAP4K5. It counts as cell-based. The following applies: Selectivity number of off-targets 0.0, Selectivity number of targets 233.0, Source Knowledge https://www.sciencedirect.com/science/article/pii/S2451945619300674?via%3Dihub, at 1 µM.

Assay [15] concerns the target MAP kinase-interacting serine/threonine-protein kinase 1 (Homo sapiens) (UniProt Q9BUB5). In words: Selectivity interaction (KinomeScan (DiscoverX)) EUB0000618a MKNK1. The following applies: at 10 µM.

Chain of Mitogen-activated protein kinase kinase kinase kinase 5 (Homo sapiens) (Q9Y4K4 whole entry, looked up): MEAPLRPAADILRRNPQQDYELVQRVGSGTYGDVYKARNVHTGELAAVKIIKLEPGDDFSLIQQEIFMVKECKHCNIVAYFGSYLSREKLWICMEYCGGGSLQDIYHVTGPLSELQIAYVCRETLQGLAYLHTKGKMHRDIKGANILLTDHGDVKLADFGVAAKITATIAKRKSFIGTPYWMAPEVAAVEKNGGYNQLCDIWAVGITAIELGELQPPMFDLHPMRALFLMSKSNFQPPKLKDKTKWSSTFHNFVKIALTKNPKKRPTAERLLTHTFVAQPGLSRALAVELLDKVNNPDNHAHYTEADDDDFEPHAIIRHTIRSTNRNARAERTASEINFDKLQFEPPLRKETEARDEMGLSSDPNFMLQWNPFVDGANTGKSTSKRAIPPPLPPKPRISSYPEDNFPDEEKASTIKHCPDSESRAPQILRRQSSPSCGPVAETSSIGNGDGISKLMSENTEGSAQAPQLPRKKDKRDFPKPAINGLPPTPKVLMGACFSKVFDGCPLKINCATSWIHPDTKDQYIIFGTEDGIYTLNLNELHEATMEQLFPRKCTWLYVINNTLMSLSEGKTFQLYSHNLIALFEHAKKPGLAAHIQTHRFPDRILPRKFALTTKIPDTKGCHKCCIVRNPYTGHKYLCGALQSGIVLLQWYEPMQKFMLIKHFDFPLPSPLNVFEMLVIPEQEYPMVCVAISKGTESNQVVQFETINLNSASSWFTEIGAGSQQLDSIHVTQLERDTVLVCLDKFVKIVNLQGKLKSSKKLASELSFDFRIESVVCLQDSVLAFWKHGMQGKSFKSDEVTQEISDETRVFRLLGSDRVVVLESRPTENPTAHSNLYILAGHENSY

Compound `Nc1cnc(N2CCc3cc(S(=O)(=O)Nc4c(F)cc(Cl)cc4F)cc(N4CCCC4=O)c32)nc1` [TP-020n] had a % of control in assay [1] of 100%.

As for `CC(=O)Nc1cccc(-n2c(=O)n(C3CC3)c(=O)c3c(Nc4ccc(I)cc4F)n(C)c(=O)c(C)c32)c1`, in assay [2], the % of control is 166%.

Take `Cc1cc(F)c(C(=O)Nc2cccc(-c3nncn3C(C)C)n2)cc1-n1cnc(C2CC2)c1`: the % of control came to 100% in [3] and 79% in [4].

Regarding `C=CC(=O)Nc1cc(-n2c(=O)ccc3cnc4ccc(-c5ccc(NS(C)(=O)=O)cc5)cc4c32)ccc1C`, the % of control in [5] (at 1 µM) was found to be 100%; in assay [5] (at 10 µM), 67%; in [6], 0.7%.

On to `O=C(NOC[C@H](O)CO)c1ccc(F)c(F)c1Nc1ccc(I)cc1F`, for which the % of control in assay [7] is 76%.

As for `CNC(=O)Nc1ccc(-c2nc(N3CC4CCC(C3)O4)c3cnn(C4CCC5(CC4)OCCO5)c3n2)cc1`, the % of inhibition in assay [8] came to 0%. Further, the % of control in [9] amounted to 84%; in assay [10], 100%.

In turn, `CC[C@@H]1[C@H](F)C(=O)N[C@@H]1COc1nccc2cc(C(N)=O)c(OC)cc12` [ZIMLOVISERTIB] registered a % of inhibition in assay [11] of 12.5%.

`COCC(=O)NC/C=C/c1ccc2ncnc(Nc3ccc(Oc4ccc(C)nc4)c(C)c3)c2c1` [CP-724714]: the % of control in assay [12] was 100%.

In the case of `N#Cc1cccc(-c2c[nH]c3ncnc(N4CCOCC4)c23)c1`, the % of control in assay [13] came out at 69%.

As to `C=CC(=O)Nc1ccc(C(=O)Nc2[nH]nc3c2CN(C(=O)N[C@H](CN(C)C)c2ccccc2)C3(C)C)cc1`, the % of engagement in assay [14] was 1.1%.

`O[C@H]1CC[C@H](Nc2ncc3nc(Nc4c(F)cc(F)cc4F)n([C@H]4CCOC4)c3n2)CC1` gave a % of control in [15] of 94%.

The values are drawn from ChEMBL document CHEMBL5465560, “Selectivity Literature for EUbOPEN Chemogenomic Library” (2024).
